Laboratory results from PMC2901058 (The Journal of Experimental Medicine, 2010).

Tested on: JurkatCD8-TK3^WT, JurkatCD8-TK3^Gln55His, and JurkatCD8-TK3^Gln55Ala cell lines
Assay: CD69 up-regulation by peptide on C1R-HLA-B*3501 APCs, JurkatCD8-TK3 lines
Type: cell-based, human
Settings: dose–response, peptide presented on C1R–HLA-B*3501; not depicted

## HPVGEADYFEY
  CD69 up-regulation, comparison between cell lines: no significant differences in CD69 up-regulation
